# Measured values published in patent EP0254593B1, “Preparation and uses of interferon-gamma” (KABUSHIKI KAISHA HAYASHIBARA SEIBUTSU KAGAKU KENKYUJO, priority 1986, dated 1988).
# Where a name gives a salt, the structure may show the parent alone.
# What was measured:
# [1] = tested on: HEp-2 cell; test: Potentialization of cytostatic activity of chemotherapeutics by HuIFN-gamma in vitro; type: cell-based, human; conditions: 2880 min
# Protocol: (§1) An aliquot of RPMI 1640 medium supplemented with 15 v/v % fetal calf serum was added with an HuIFN-gamma prepared by the method in Example B-1(3) to a final concentration of 5, 50 or 500 units/ml, and the mixture was inoculated with a malignant human tumor cell to 5×10^5 cell/ml. The resultant was incubated in 5% CO2 incubator at 37°C for three days. As control, the same amount of an HuIFN-gamma preinactivated by 30-minute incubation at 100°C was added to a fresh preparation of the same culture medium, and the mixture was treated similarly as above. After culture, the viable cell was stained with neutral red in accordance with the method as described in Applied Microbiology, Vol.22, No.4, pp.671-677 (1971). Thereafter, the neutral red was eluted with acidified ethanol, and the number of viable cell was determined with the absorbance of the eluate at 540 nm.
# (§2) Cytostatic rate (%) was determined with the following equation: Cytostatic rate (%) = ( 1 -(A)/(B)) × 100 [formula] wherein A designates the number of viable cell in the test system, and B, that in the control.
# (§3) One ml aliquots of a nutrient culture medium prepared in accordance with the method in Experiment 2-2(1) was inoculated with 10^6 cells of a human malignant tumor cell, and the mixture was cultured for one day. The resultant culture was added with 50 units of an HuIFN-gamma prepared by the method in Example B-1(3) and/or 0.1 ml of saline containing a chemotherapeutic, and cultured at 37°C for two days. As control, a saline free of HuIFN-gamma and chemotherapeutic was used. After the culture, the cytostatic rate (%) was determined in accordance with the method in Experiment 2-2(1). The concentration of the chemotherapeutics were as follows: nimustine hydrochloride (ACNU), 1.0×10^-6 g/ml; fluorouracil (5-FU), 1.5×10^-8 g/ml; doxorubicin (ADM), 1.0×10^-10 g/ml; mitomycin C (MMC), 2.5×10^-9 g/ml; and vincristine sulfate (VCR), 1.5×10^-10 g/ml.
# [2] = tested on: HLE; test: as above; type: cell-based, human; conditions: 2880 min
# Protocol: as §1, §2, §3
# [3] = tested on: HeLa; test: as above; type: cell-based, human; conditions: 2880 min
# Protocol: as §1, §2, §3
# [4] = tested on: PC-9; test: as above; type: cell-based, human; conditions: 2880 min
# Protocol: as §1, §2, §3
# [5] = tested on: human breast cancer tissue; test: Cytostatic activity on malignant tumors in vivo (tumor weight); parameters: species or system BALB/c nude mice; conditions: injected once every day for 20 days; dose/kg/day: HuIFN-gamma 50 units, HuIFN-alpha 500 units, TNF 100 units, MMC 1 mg; control 10.8 g
# Protocol: BALB/c nude mice were implanted at their dorsal area with a segment of human breast cancer tissue. From the time when the tumors grew to about 200 mm^3, the nude mice were injected once every day with one or more HuIFN-gamma prepared by the method in Example B-1(3), a lymphokine derived from human lymphoblastoid cell, and/or a chemotherapeutic in saline solution over a period of 20 days.
# Thereafter, the nude mice were sacrificed, and the tumors were weighed.
# As control, saline was injected similarly as above.
# [6] = chemotherapeutic with addition (+) of 50 units HuIFN-gamma, two days, same chemotherapeutic concentrations
# [7] = single agent, two days: HuIFN-gamma 50 units, ACNU 1.0×10^-6, 5-FU 1.5×10^-8, ADM 1.0×10^-10, MMC 2.5×10^-9, VCR 1.5×10^-10 g/ml
SMILES,"Cytostatic rate (%) [1, 6]","Cytostatic rate (%) [1, 7]","Cytostatic rate (%) [2, 6]","Cytostatic rate (%) [2, 7]","Cytostatic rate (%) [3, 6]","Cytostatic rate (%) [3, 7]","Cytostatic rate (%) [4, 6]","Cytostatic rate (%) [4, 7]",Tumor [5]
"Cc1ncc(CNC(=O)N(CCCl)N=O)c(N)n1 [ACNU, nimustine hydrochloride]",54%,4%,63%,5%,72%,5%,65%,2%,
"COc1cccc2c1C(=O)c1c(O)c3c(c(O)c1C2=O)C[C@@](O)(C(=O)CO)C[C@@H]3O[C@H]1C[C@H](N)[C@H](O)[C@H](C)O1 [ADM, doxorubicin]",59%,13%,62%,7%,64%,17%,72%,6%,
"O=c1[nH]cc(F)c(=O)[nH]1 [Example 5-FU, fluorouracil]",67%,8%,71%,8%,70%,12%,68%,10%,
"CO[C@@]12[C@H](COC(N)=O)C3=C(C(=O)C(C)=C(N)C3=O)N1C[C@@H]1N[C@@H]12 [MMC, mitomycin C]",61%,10%,65%,12%,62%,7%,64%,5%,5.1 ± 0.4 g
"CC[C@]1(O)C[C@H]2CN(CCc3c([nH]c4ccccc34)[C@@](C(=O)OC)(c3cc4c(cc3OC)N(C=O)[C@H]3[C@@](O)(C(=O)OC)[C@H](OC(C)=O)[C@]5(CC)C=CCN6CC[C@]43[C@@H]65)C2)C1 [VCR, vincristine sulfate]",58%,5%,58%,10%,65%,10%,66%,8%,
